Results published in article PMC6965684, “Characterization of binding, functional activity, and contractile responses of the selective 5‐HT1F receptor agonist lasmiditan” (British Journal of Pharmacology, 2019).
Structures can show the parent of a compound that is named as a salt. Where two headings read alike, the source gives them in different places.

How the values were obtained:
[1] = molecular target: T1, 5-ht1E receptor (Homo sapiens, UniProt P28566); test: biochemical; type: CHO-K1 membranes; set-up: radioligand competition binding on cell membranes, filtration and TopCount scintillation counting; details: radioligand displacement; read-out: 5‐ht1E / pIC50 (converted)
T1 construct: gene HTR1E; full-length human recombinant receptor in CHO-K1 cells (Ogeda); crude membranes
Protocol: (§1) Competition binding was performed in duplicate in the wells of a 96‐well plate containing binding buffer (optimized for each receptor), cell membrane extracts (approximately 20,000 cells distributed in the 96‐well plate), radiotracer, and test agonist. Non‐specific binding was determined by co‐incubation with 200‐fold excess of competitor. Cells were incubated and exposed to varying concentrations (1 pM to 10 μM) of a range of displacer agonists (see below). The samples were incubated in a final volume of 0.1 ml and then filtered over Unifilter plates (Perkin Elmer, Massachusetts, USA) pretreated for 2 hr to limit tracer non‐specific binding. Filters were washed five times with 0.5 ml of ice‐cold washing buffer (tris 50 mM pH 7.4) and 50 μl of Microscint 20 (Perkin Elmer) were added to each filter. The plates were incubated 15 min at room temperature on an orbital shaker and then counted with a TopCount™ (Perkin Elmer) for 1 min per well. […] Additionally, the reference values obtained were compared to historical values obtained from the same receptor and used to validate the experimental session. […] For the new assays developed in this study (i.e., 5‐ht1E receptor), the two independent pIC50 determined must be concordant with a 1 log unit interval for the assays to be validated.

[2] = molecular target: T2, 5-HT1F receptor (Homo sapiens, UniProt P30939); test: biochemical; type: CHO-K1 membranes; set-up: radioligand competition binding on cell membranes, filtration and TopCount scintillation counting; details: radioligand displacement; for IC50: read-out: 5‐HT1F / pIC50 (converted); for Ki: read-out: 5‐HT1F / pKi (converted)
T2 construct: gene HTR1F; full-length human recombinant receptor in CHO-K1 cells (Ogeda)
T2 sequence (P30939 1-366): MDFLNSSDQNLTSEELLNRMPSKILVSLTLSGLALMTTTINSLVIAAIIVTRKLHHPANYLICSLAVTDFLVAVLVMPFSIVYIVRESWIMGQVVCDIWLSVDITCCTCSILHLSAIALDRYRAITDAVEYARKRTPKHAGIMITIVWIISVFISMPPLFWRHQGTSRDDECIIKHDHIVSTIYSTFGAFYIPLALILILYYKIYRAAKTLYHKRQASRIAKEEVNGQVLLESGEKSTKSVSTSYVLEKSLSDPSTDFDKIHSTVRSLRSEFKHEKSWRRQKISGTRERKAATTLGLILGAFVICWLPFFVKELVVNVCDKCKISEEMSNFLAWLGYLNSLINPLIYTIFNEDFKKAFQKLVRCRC
Protocol: as §1, with “validated. […]” for “validated.”

[3] = molecular target: T1, 5-ht1E receptor; test: biochemical; type: CHO-K1 membranes; set-up: GTPγS agonist functional assay; details: GTPγS
Excerpt: (§2) Additionally, the reference values obtained were compared to historical values obtained from the same receptor and used to validate the experimental session. […] For the new assays developed in this study (i.e., 5‐ht1E receptor), the two independent pIC50 determined must be concordant with a 1 log unit interval for the assays to be validated.

[4] = molecular target: T2, 5-HT1F receptor; test: biochemical; type: CHO-K1 membranes; set-up: GTPγS agonist functional assay; details: GTPγS
Excerpt: as §2

[5] = molecular target: T1, 5-ht1E receptor; test: radioligand competition, CHO-K1 membranes; type: binding; details: read-out: 5-ht1E / pKi (converted)
Excerpt: radioligand competition, CHO-K1 membranes on 5-ht1E receptor

[6] = molecular target: T3, 5-HT1D receptor (Homo sapiens, UniProt P28221); test: biochemical; type: CHO-K1 membranes; set-up: radioligand competition binding on cell membranes, filtration and TopCount scintillation counting; details: radioligand displacement; read-out: 5‐HT1D / pIC50 (converted)
T3 construct: gene HTR1D; full-length human recombinant receptor in CHO-K1 cells (Ogeda); crude membranes
Protocol: as §1

[7] = molecular target: T4, 5-HT1B receptor (Homo sapiens, UniProt P28222); test: biochemical; type: CHO-K1 membranes; set-up: radioligand competition binding on cell membranes, filtration and TopCount scintillation counting; details: radioligand displacement; read-out: 5‐HT1B / pIC50 (converted)
T4 construct: gene HTR1B; full-length human recombinant receptor in CHO-K1 cells (Ogeda); crude membranes
Protocol: as §1

[8] = molecular target: T5, 5-HT2B receptor (Homo sapiens, UniProt P41595); test: biochemical; type: CHO-K1 membranes; set-up: radioligand competition binding on cell membranes, filtration and TopCount scintillation counting; details: radioligand displacement; read-out: 5‐HT2B / pIC50 (converted)
T5 construct: gene HTR2B; full-length human recombinant receptor in CHO-K1 cells (Ogeda); crude membranes
Protocol: as §1

[9] = molecular target: T3, 5-HT1D receptor; test: biochemical; type: CHO-K1 membranes; set-up: GTPγS agonist functional assay
Excerpt: as §2

[10] = molecular target: T4, 5-HT1B receptor; test: biochemical; type: CHO-K1 membranes; set-up: GTPγS agonist functional assay
Excerpt: as §2

[11] = GTPγS, read-out: 5‐HT1D / GTPγS (converted)
[12] = GTPγS, read-out: 5‐HT1B / GTPγS (converted)

T4 sequence (P28222 whole entry): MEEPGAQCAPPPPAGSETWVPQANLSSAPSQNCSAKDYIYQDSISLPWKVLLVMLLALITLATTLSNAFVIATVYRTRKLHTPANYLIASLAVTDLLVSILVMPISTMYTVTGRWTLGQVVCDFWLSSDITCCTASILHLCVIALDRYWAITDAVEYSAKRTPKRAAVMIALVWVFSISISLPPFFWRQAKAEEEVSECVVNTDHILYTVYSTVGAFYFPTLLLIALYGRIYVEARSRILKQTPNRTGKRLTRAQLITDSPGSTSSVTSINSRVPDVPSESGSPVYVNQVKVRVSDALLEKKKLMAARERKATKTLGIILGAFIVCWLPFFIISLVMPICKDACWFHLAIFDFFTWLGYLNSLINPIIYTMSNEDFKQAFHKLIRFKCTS
T3 sequence (P28221 whole entry): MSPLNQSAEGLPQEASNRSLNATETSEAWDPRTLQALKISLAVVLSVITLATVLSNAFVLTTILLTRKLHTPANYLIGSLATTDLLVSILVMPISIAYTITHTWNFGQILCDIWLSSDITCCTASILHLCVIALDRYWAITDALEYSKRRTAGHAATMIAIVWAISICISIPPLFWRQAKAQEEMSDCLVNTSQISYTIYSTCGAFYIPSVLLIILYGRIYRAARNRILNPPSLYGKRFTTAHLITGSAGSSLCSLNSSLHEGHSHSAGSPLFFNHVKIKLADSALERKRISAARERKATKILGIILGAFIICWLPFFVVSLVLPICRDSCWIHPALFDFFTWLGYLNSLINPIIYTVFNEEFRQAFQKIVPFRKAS
T1 sequence (P28566 whole entry): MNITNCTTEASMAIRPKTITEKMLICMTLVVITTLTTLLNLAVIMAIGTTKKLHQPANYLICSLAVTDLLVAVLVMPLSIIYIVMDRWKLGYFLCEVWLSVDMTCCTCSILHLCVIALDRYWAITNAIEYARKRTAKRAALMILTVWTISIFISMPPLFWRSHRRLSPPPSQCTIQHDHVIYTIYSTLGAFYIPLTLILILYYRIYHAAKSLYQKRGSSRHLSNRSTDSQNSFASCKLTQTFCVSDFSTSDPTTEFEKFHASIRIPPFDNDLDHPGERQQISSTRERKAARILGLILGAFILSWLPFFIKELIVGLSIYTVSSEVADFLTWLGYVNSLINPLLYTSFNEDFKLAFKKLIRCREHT
T5 sequence (P41595 whole entry): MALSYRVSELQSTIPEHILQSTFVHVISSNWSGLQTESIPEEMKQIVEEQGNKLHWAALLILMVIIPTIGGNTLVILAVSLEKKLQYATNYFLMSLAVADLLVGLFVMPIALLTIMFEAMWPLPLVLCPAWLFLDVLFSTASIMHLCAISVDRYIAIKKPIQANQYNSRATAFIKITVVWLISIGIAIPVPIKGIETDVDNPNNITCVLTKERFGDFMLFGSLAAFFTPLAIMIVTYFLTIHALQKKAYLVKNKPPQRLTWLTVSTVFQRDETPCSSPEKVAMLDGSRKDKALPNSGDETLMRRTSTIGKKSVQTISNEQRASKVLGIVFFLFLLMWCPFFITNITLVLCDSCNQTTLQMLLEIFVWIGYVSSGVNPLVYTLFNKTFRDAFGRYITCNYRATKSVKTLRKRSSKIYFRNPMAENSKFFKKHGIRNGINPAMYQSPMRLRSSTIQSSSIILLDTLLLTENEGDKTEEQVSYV

Structure (SMILES) | IC50 [1] [nM] | IC50 [2] [nM] | Ki [2] [nM] | EC50 [3] [nM] | EC50 [4] [nM] | Ki [5] [nM] | IC50 [6] [nM] | IC50 [7] [nM] | IC50 [8] [nM] | EC50 [9, 11] [nM] | EC50 [10, 12] [nM] | EC50 [9] [nM] | EC50 [10] [nM]
CNC1CCc2[nH]c3ccc(C(N)=O)cc3c2C1 (racemic) [Frovatriptan racemate] | > 10000 | 316 | 120 | > 10000 | 447 | – | – | – | – | – | – | – | –
CNS(=O)(=O)Cc1ccc2[nH]cc(CCCN3CCN(c4ncncc4OC)CC3)c2c1 [Avitriptan fumarate] | 7080 | 204 | – | > 10000 | 891 | 3550 | 3.8 | 4.79 | 1860 | 0.537 | 2.09 | – | –
N#Cc1ccc(N2CCN(C(=O)COc3ccc4[nH]cc(CCN)c4c3)CC2)cc1 [Donitriptan hydrochloride] | 3390 | – | – | > 10000 | – | 1700 | 0.661 | 0.513 | 1320 | – | – | 0.309 | 0.302
CN1CCC[C@@H]1Cc1c[nH]c2ccc(CCS(=O)(=O)c3ccccc3)cc12 [Eletriptan hydrobromide] | 123 | 44.7 | – | 126 | 132 | 61.7 | 0.49 | 1.58 | 724 | 0.912 | 8.13 | – | –
CN(C)[C@@H]1CCc2[nH]c3ccc(NC(=O)c4ccc(F)cc4)cc3c2C1 [LY344864 hydrochloride] | – | 4.17 | 1.58 | – | 14.1 | – | – | – | 4900 | 117 | – | – | –
CNS(=O)(=O)CCc1ccc2[nH]cc(C3CCN(C)CC3)c2c1 [Naratriptan hydrochloride] | – | 4.68 | – | 6.76 | 8.91 | 7.41 | 2.4 | – | > 10000 | – | 1.38 | – | –
